Experimental data published in ChEMBL document CHEMBL1681741, “SAR studies on dihydropyrimidinone antibiotics” (Bioorg Med Chem Lett, 2011).
In brackets after ≈: the same amount, converted by molar mass.

Columns and labels:
[1] = Inhibition of protein translation in rabbit reticulocytes; assay type: functional, cell-based, Oryctolagus cuniculus
[2] = Selectivity index, ratio of IC50 for protein translation inhibition in Escherichia coli S30 cell extract to IC50 for protein translation inhibition in rabbit reticulocytes; assay type: functional
[3] = tested on: Staphylococcus aureus; assay: Antimicrobial activity against methicillin-resistant Staphylococcus aureus by NCCLS method; assay type: functional
[4] = tested on: Escherichia coli; assay: Inhibition of protein translation in Escherichia coli S30 cell extract; assay type: functional
[5] = tested on: Staphylococcus aureus; assay: Antimicrobial activity against methicillin-resistant Staphylococcus aureus in mouse septicemia model; assay type: functional
[6] = tested on: Staphylococcus aureus; assay: Antimicrobial activity against methicillin-resistant Staphylococcus aureus in iv dosed mouse septicemia model; assay type: functional; conditions: read-out: PD50

| Compound | IC50 [1] [µM] | Selectivity ratio [2] | MIC [3] [µg/mL] | IC50 [4] [µM] | MIC [5] [µg/mL] | ED50 [6] [mg/kg] |
| --- | --- | --- | --- | --- | --- | --- |
| CN(C(=O)C[C@@H](N)CCCCN)C1CN=C(NC(N)=O)NC1=O (mixture of isomers) | 39.8 | 6 | 64 | 6.5 |  |  |
| CN(C(=O)C[C@@H](N)CCCN)C1CN=C(NC(N)=O)NC1=O (mixture of isomers) | < 5 | <0.6 | 64 | 9 |  |  |
| CN(C(=O)C[C@@H](N)CCCN=C(N)N)C1CN=C(NC(N)=O)NC1=O (mixture of isomers) | 0.2 | 0.67 | 8 |  | 12.8 | 0.7 |
| CC/N=C(/N)NCCC[C@H](N)CC(=O)N(C)C1CN=C(NC(N)=O)NC1=O (mixture of isomers) | 27.4 |  | > 256 | 2.4 |  |  |
| CCN(C(=O)C[C@@H](N)CCCNC(=N)N)C1CNC(NC(N)=O)=NC1=O (mixture of isomers) | 45 | 25 | 256 | 1.8 |  |  |
| CC(=O)NC1=NC(=O)C(N(C)C(=O)C[C@@H](N)CCCNC(=N)N)CN1 (mixture of isomers) | 0.2 | 2 | 8 | 0.1 |  |  |
| CCC(=O)NC1=NC(=O)C(N(C)C(=O)C[C@@H](N)CCCNC(=N)N)CN1 (mixture of isomers) | < 5 |  | 16 | < 5 |  |  |
| CC(=O)N(C)C1=NC(=O)C(N(C)C(=O)C[C@@H](N)CCCNC(=N)N)CN1 (mixture of isomers) | 21 | 3.1 | 64 | 6.8 |  |  |
| CN(C)C(=O)NC1=NC(=O)C(N(C)C(=O)C[C@@H](N)CCCNC(=N)N)CN1 (mixture of isomers) | 19.7 | 3.4 | > 500 | 8.8 |  |  |
| CN(C(=O)C[C@@H](N)CCCNC(=N)N)C1CNC(N2CCNC2=O)=NC1=O (mixture of isomers) | > 500 |  | > 500 | > 500 |  |  |
| CN1CC(N(C)C(=O)C[C@@H](N)CCCNC(=N)N)C(=O)N=C1NC(N)=O (mixture of isomers) | > 500 |  | > 500 | > 500 |  |  |
| CN1C(=O)C(N(C)C(=O)C[C@@H](N)CCCNC(=N)N)CN=C1NC(N)=O (mixture of isomers) | > 500 |  | > 500 | > 500 |  |  |
| CN(C(=O)C[C@@H](N)CCCNC(=N)N)C1CN=C(NC(N)=O)NC1 (mixture of isomers) |  |  | > 256 | 121 |  |  |
| CN(C(=O)C[C@@H](N)CCCNC(=N)N)c1ccc(NC(N)=O)[nH]c1=O (mixture of isomers) | 56 |  | > 500 | > 500 |  |  |
| CC(=O)NC1=CC(=O)C(N(C)C(=O)C[C@@H](N)CCCNC(=N)N)CN1 (mixture of isomers) | > 500 |  | > 500 | > 500 |  |  |
| CN(CC1CNC(NC(N)=O)=NC1=O)C(=O)C[C@@H](N)CCCNC(=N)N (mixture of isomers) | 56 | 1.1 | > 500 | 51 |  |  |
| CN(C(=O)C[C@@H](N)CCCCCN)C1CNC(NC(N)=O)=NC1=O (mixture of isomers) | 10 | 2 | 16 | 5 |  |  |
| CN[C@@H](CCCCN)CC(=O)N(C)C1CNC(NC(N)=O)=NC1=O (mixture of isomers) | 5 | 0.2 | 128 | 25 |  |  |
| CN(C(=O)C[C@H](CCCCN)NC=O)C1CNC(NC(N)=O)=NC1=O (mixture of isomers) | > 500 |  | > 500 | > 500 |  |  |

| Compound | IC50 [1] [µM] | Selectivity ratio [2] | MIC [3] [µg/mL] | IC50 [4] [µM] | MIC [5] [µg/mL] | ED50 [6] [mg/kg] |
| --- | --- | --- | --- | --- | --- | --- |
| CN(C(=O)C[C@@H](N)CCCNC(N)=O)C1CNC(NC(N)=O)=NC1=O (mixture of isomers) | > 500 |  | > 500 | > 500 |  |  |
| CN(C(=O)C[C@@H](N)CCC(=O)NC(=N)N)C1CNC(NC(N)=O)=NC1=O (mixture of isomers) | 7 | 0.03 | > 500 | 226 |  |  |
| CC(=O)NC(=N)NCCC[C@H](N)CC(=O)N(C)C1CNC(NC(N)=O)=NC1=O (mixture of isomers) |  |  | > 256 | 106 |  |  |
| C/N=C(/NC)NCCC[C@H](N)CC(=O)N(C)C1CNC(NC(N)=O)=NC1=O (mixture of isomers) | 26.3 | 20 | 256 | 1.3 |  |  |
| CN(C)C(=N)NCCC[C@H](N)CC(=O)N(C)C1CNC(NC(N)=O)=NC1=O (mixture of isomers) | 20.6 | 4.9 | 64 | 4.2 |  |  |
| CN(C(=O)C[C@@H](N)CCCN/C(N)=N\O)C1CNC(NC(N)=O)=NC1=O (mixture of isomers) | 23.2 | 2.8 | 64 | 8.2 |  |  |
| CN(C(=O)C[C@@H](N)CCCN1CCNC1=N)C1CNC(NC(N)=O)=NC1=O (mixture of isomers) | 35 | 8.3 | 128 | 4.2 |  |  |
| CN(C(=O)C[C@@H](N)c1cccc(NC(=N)N)c1)C1CNC(NC(N)=O)=NC1=O (mixture of isomers) | 1.9 | 10 | 256 | 0.15 |  |  |
| CN(C(=O)C[C@@H](N)Cc1ccc(C(=N)N)cc1)C1CNC(NC(N)=O)=NC1=O (mixture of isomers) | 12.3 | 8.2 | 512 | 0.51 |  |  |
| CN(C(=O)C[C@@H](N)CC1CCNCC1)C1CNC(NC(N)=O)=NC1=O (mixture of isomers) | 6.6 | 1 | 64 | 6.6 |  |  |
| CN(C(=O)C[C@@H](N)CC1CCN(C(=N)N)CC1)C1CNC(NC(N)=O)=NC1=O (mixture of isomers) | 0.75 | 6.8 | 16 | 0.11 | 16 | 2.4 |
| C/N=C(/N)N1CCC(C[C@H](N)CC(=O)N(C)C2CNC(NC(N)=O)=NC2=O)CC1 (mixture of isomers) | 53 | 14.7 | 64 | 3.6 |  |  |
| CN(C(=O)C[C@@H](N)C1CCN(C(=N)N)CC1)C1CNC(NC(N)=O)=NC1=O (mixture of isomers) | 0.23 | 1.3 | 16 | 0.18 |  |  |
| CN(C(=O)C[C@@H](N)C[C@H]1CCNC1)C1CNC(NC(N)=O)=NC1=O (mixture of isomers) | 0.6 | 0.3 | 64 | 2 |  |  |
| CN(C(=O)C[C@@H](N)C[C@@H]1CCNC1)C1CNC(NC(N)=O)=NC1=O (mixture of isomers) | 3.4 | 0.9 | 128 | 3.9 |  |  |
| CN(C(=O)C[C@@H](N)C[C@H]1CCN(C(=N)N)C1)C1CNC(NC(N)=O)=NC1=O (mixture of isomers) | 0.45 | 2.6 | 8 | 0.17 | 16 | 1.5 |
| C/N=C(/N)NCCC[C@H](N)CC(=O)N(C)C1CN=C(NC(N)=O)NC1=O (mixture of isomers) | 1.3 | 6.5 | 8 | 0.2 | 32 | 3.3 |
| CN[C@H](CC(C)C)C(=O)N[C@H]1C(=O)N[C@@H](CC(N)=O)C(=O)N[C@H]2C(=O)N[C@H]3C(=O)N[C@H](C(=O)N[C@H](C(=O)O)c4cc(O)cc(O)c4-c4cc3ccc4O)[C@H](O)c3ccc(c(Cl)c3)Oc3cc2cc(c3O[C@@H]2O[C@H](CO)[C@@H](O)[C@H](O)[C@H]2O[C@H]2C[C@](C)(N)[C@H](O)[C@H](C)O2)Oc2ccc(cc2Cl)[C@H]1O [VANCOMYCIN] |  |  |  |  | 0.8 (≈ 0.552 µM) | 9.6 |
